Data published in US4866090A, “Novel HMG-CoA reductase inhibitors” (Merck & Co., Inc., priority 1988, dated 1989).

Biological target: T1, HMG-CoA reductase (Rattus norvegicus, UniProt P51639)
T1 sequence (P51639 1-887): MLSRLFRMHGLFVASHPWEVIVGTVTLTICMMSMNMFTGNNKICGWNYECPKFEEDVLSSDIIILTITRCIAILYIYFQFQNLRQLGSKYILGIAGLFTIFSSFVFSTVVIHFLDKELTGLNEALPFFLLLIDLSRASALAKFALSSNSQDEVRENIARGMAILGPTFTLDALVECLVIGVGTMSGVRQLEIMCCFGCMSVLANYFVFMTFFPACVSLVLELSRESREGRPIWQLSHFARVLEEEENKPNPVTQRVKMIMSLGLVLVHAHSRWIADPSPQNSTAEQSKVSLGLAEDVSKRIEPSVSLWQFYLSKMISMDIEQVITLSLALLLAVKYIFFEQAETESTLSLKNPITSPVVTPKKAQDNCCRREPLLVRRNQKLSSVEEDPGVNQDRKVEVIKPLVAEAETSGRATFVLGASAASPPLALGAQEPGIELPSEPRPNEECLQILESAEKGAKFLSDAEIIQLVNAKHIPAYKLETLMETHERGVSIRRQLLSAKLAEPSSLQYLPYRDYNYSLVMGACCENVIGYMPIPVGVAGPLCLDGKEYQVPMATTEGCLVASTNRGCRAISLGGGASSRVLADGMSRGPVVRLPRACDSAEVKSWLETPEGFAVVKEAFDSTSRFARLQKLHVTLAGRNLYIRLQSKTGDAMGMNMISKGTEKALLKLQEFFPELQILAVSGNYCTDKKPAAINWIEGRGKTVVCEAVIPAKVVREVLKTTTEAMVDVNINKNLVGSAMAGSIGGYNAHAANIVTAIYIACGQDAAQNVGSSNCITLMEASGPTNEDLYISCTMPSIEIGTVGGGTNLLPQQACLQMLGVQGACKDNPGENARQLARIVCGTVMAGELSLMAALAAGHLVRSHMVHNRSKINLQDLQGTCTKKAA
Test: intrinsic HMG-CoA reductase inhibition, in vitro protocol of J. Med. Chem., 28, p. 347-358 (1985)
Format: biochemical
Conditions: IC50 of test compound compared with that of compactin determined simultaneously; compactin = 100
Protocol: The intrinsic HMG-CoA reductase inhibition activity of the claimed compounds is measured in the in vitro protocol published in J. Med. Chem., 28, p. 347-358 (1985).
For estimation of relative inhibitory potencies, compactin (i.e., mevastatin) was assigned a value of 100 and the IC50 value of the test compound was compared with that of compactin determined simultaneously in the published in vitro protocol.

## CCC(C)(C)C(=O)O[C@H]1CC(C)(C)C[C@@H]2CC[C@H](C)[C@H](CC[C@@H]3C[C@@H](O)CC(=O)O3)[C@H]21 [1,1-dimethylpropyl CH3 CH3, 6(R)-[2-(8(S)-(2,2-Dimethylbutyryloxy)-2(S),6,6-trimethyl-1,2,3,4,4a(S),5,6,7,8,8a(S)-decahydronaphthyl-1(S)]ethyl]-4(R) hydroxy-3,4,5,6-tetrahydro-2H pyran-2-one]
  Relative Potency: 111

## CCC(C)(C)C(=O)O[C@H]1CC2(CC2)C[C@@H]2CC[C@H](C)[C@H](CC[C@@H]3C[C@@H](O)CC(=O)O3)[C@H]21 [1,1-dimethylpropyl --CH2 CH2 --]
  Relative Potency: 170
